According to patent US9179674B2, “Macrocyclic picolinamide compounds with fungicidal activity” (DOW AGROSCIENCES LLC, priority 2013, dated 2015):

Columns and labels:
Type in all cases: in vivo
[1] = tested on: Mycosphaerella graminicola; Anamorph: Septoria tritici; test: Leaf Blotch of Wheat fungicidal activity (SEPTTR); conditions: Zymoseptoria tritici, 24 h, 1 Day Protectant, rate 121.5 g/H, read-out: Disease control SEPTTR 1DP
Procedure, shortened: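 Acetone solutions diluted with nine volumes of water containing 110 ppm Triton X-100, sprayed to run-off on first-leaf wheat seedlings (Yuma), inoculated with S. tritici before or after treatment. Plants held in dew chambers, then in a 20 °C greenhouse. Disease severity (0–100%) scored when untreated plants fully symptomatic; % control relative to untreated.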

[2] = tested on: Puccinia triticina; test: Wheat Brown Rust fungicidal activity (PUCCRT); conditions: Puccinia triticina, 24 h, 1 Day Protectant, rate 121.5 g/H, read-out: Disease control PUCCRT 1DP
Procedure, shortened: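 Yuma wheat seedlings at first-leaf stage sprayed to run-off (acetone solution in water with 110 ppm Triton X-100) or track-sprayed as EC with 0.1% Trycol 5941; inoculated with P. triticina spores before or after treatment. Overnight dark dew at 22° C., then greenhouse 24° C.; disease severity 0–100% gives percent control vs untreated.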

[3] = tested on: Alternaria solani; test: Tomato Early Blight fungicidal activity (ALTESO); conditions: 24 h, 1 Day Protectant, read-out: Disease Control ALTESO 1DP
Description: Technical grades of materials were dissolved in acetone, which were then mixed with nine volumes of water containing 110 ppm Triton X-100. The fungicide solutions were applied onto wheat seedlings using an automated booth sprayer to run-off. All sprayed plants were allowed to air dry prior to further handling. All fungicides were evaluated using the aforementioned method for their activity vs. all target diseases. Wheat leaf blotch and brown rust activity were also evaluated using track spray applications, in which case the fungicides were formulated as EC formulations, containing 0.1% Trycol 5941 in the spray solutions. Wheat plants (variety Yuma) were grown from seed in a greenhouse in 50% mineral soil/50% soil-less Metro mix until the first leaf was fully emerged, with 7-10 seedlings per pot. These plants were inoculated with an aqueous spore suspension of Septoria tritici either prior to or after fungicide treatments. After inoculation the plants were kept in 100% relative humidity (one day in a dark dew chamber followed by two to three days in a lighted dew chamber at 20° C.) to permit spores to germinate and infect the leaf. The plants were then transferred to a greenhouse set at 20° C. for disease to develop. When disease symptoms were fully expressed on the 1st leaves of untreated plants, infection levels were assessed on a scale of 0 to 100 percent disease severity. Percent disease control was calculated using the ratio of disease severity on treated plants relative to untreated plants. Evaluation of Fungicidal Activity: Tomato Early Blight (Alternaria solani; Bayer Code […]) Tomato plants (variety Outdoor girl) were propagated in soil-less Metro mix, with each pot having one plant, and used when 12 to 14 days old. Test plants were inoculated with an aqueous spore suspension of Alternaria solani 24 hr after fungicide treatments. After inoculation the plants were kept in 100% relative humidity (one day in a dark dew chamber followed by two to three days in a lighted dew chamber at 20° C.) to permit spores to germinate and infect the leaf. The plants were then transferred to a growth room at 22° C. for disease to develop. Fungicide formulation, application and disease assessment on the sprayed leaves followed the procedures as described in the Example A.

CCCCCO[C@@H]1[C@@H](Cc2ccc(Cl)cc2Cl)COC[C@H](NC(=O)c2nccc(OC)c2OC(=O)CCOC)C(=O)O[C@H]1C [Compound F123]
80 to 100%: pest or weed control at 121.5 g/ha [1] | pest or weed control at 121.5 g/ha [2] | pest or weed control at 100 ppm [3]
